The values below come from PMC12578816 (Scientific Reports, 2025).

Values after ≈ are worked out from the molar mass of the structure shown. “Also recorded” adds a separate entry of the source. Like-named read-outs stand apart in the source and are kept apart here.

In experiment [1] the test system is α-glucosidase (from Saccharomyces cerevisiae). Kind of experiment: α-glucosidase inhibitory assay. Type of experiment: biochemical.
The subject of another experiment is α-glucosidase. The following applies: cited from earlier work.
The subject of experiment [2] is α-glucosidase (from Saccharomyces cerevisiae). Kind of experiment: α-glucosidase enzyme kinetic analysis. The following applies: for inhibition mechanism: Lineweaver–Burk plots; for Ki: secondary plot of slopes.

Take `CC(=O)c1nccc2c1[nH]c1ccccc12` [1-acetyl-β-carboline]: the “α-glucosidase inhibitory activity of isolated compounds (in words)” value (from here on “α-glucosidase inhibitory activity”) in experiment [1] is reported as “no inhibitory activity”. Still for that read-out and setting: for `O=Cc1ccc(O)cc1` [4-hydroxybenzaldehyde] the value was “no inhibitory activity”. With `C[C@H]1O[C@H](O[C@H]2[C@H](O)[C@@H](O)[C@@H](O[C@H]3[C@H](O)[C@@H](O)C(O)O[C@@H]3CO)O[C@@H]2CO)[C@H](O)[C@@H](O)[C@@H]1N[C@H]1C=C(CO)[C@@H](O)[C@H](O)[C@H]1O` (stereo partly drawn) [Acarbose, reference compound], the inhibition mechanism result was “competitive inhibitor” in the experiment on α-glucosidase and “competitive inhibition” in experiment [2]. The “Inhibition (%)” value in experiment [1] (10 mg/mL, n = 3, mean ± SD) came to 80.2 ± 0.7%. The Ki is a dissociation constant, usually derived from enzyme kinetics or from competition with a known ligand. A high value points to weaker binding. `Nc1ncnc2c1ncn2[C@@H]1O[C@H](CO)[C@@H](O)[C@H]1O` [Adenosine]: the “α-glucosidase inhibitory activity” value in experiment [1] is listed as “exhibited α-glucosidase inhibitory activity”. Also, in experiment [2], the inhibition mechanism entry is “mixed-type” and the Ki is 90.9 µM. For `CCCCCCCCCCCCCCCC(=O)O` [C16:0, Palmitic acid], in the experiment on α-glucosidase (fatty acids), the inhibition mechanism entry was “mixed-type”. The term IC50 denotes the point on the concentration scale where inhibition reaches its midpoint. As for `OC[C@H]1O[C@H](O[C@H]2[C@H](O)[C@@H](O)[C@@H](O[C@H]3[C@H](O)[C@@H](O)C(O)O[C@@H]3CO)O[C@@H]2CO)[C@H](O)[C@@H](O)[C@@H]1N[C@@H]1[C@H](O)[C@@H](O)[C@H](O)[C@]2(CO)O[C@H]12` (stereo partly drawn) [CKD-711], on α-glucosidase, the IC50 is listed as 2.5 µg/mL (≈ 3.69 µM). Consider `OC[C@H]1O[C@H](O[C@H]2[C@H](O)[C@@H](O)[C@@H](O[C@H]3[C@H](O)[C@@H](O)[C@@H](O[C@H]4[C@H](O)[C@@H](O)[C@@H](O[C@H]5[C@H](O)[C@@H](O)C(O)O[C@@H]5CO)O[C@@H]4CO)O[C@@H]3CO)O[C@@H]2CO)[C@H](O)[C@@H](O)[C@@H]1N[C@@H]1[C@H](O)[C@@H](O)[C@H](O)[C@]2(CO)O[C@H]12` (stereo partly drawn) [CKD-711a], for which the IC50 at α-glucosidase is recorded as 6.5 µg/mL (≈ 6.49 µM). As for `CCCCOC(=O)c1ccccc1C(=O)OCCCC` [DBP, dibutyl phthalate], the “α-glucosidase inhibitory activity” value in experiment [1] is reported as “exhibited α-glucosidase inhibitory activity”. Further, in experiment [2], the inhibition mechanism result is recorded as “mixed-type” and the Ki worked out at 516 µM. For `O=c1ccn([C@@H]2O[C@H](CO)[C@@H](O)[C@H]2O)c(=O)[nH]1` [Uridine] the same measures were “exhibited α-glucosidase inhibitory activity”, “competitive inhibitor; also recorded: competitive inhibition” and 153 µM. As to `CCCCC/C=C\C/C=C\C/C=C\C/C=C\CCCC(=O)O` [arachidonic acid], the inhibition mechanism result in the experiment with α-glucosidase (fatty acids) is recorded as “mixed-type”. For the compound `CC/C=C\C/C=C\C/C=C\C/C=C\C/C=C\CCCC(=O)O` [eicosapentaenoic acid], the inhibition mechanism result in the experiment with α-glucosidase (fatty acids) is “mixed-type”. Regarding `O=c1c(-c2ccc(O)cc2)coc2cc(O)cc(O)c12` [genistein], the inhibition type entry in the experiment with α-glucosidase is listed as “non-competitive inhibitor”. As for `CCCCC/C=C\C/C=C\CCCCCCCC(=O)O` [linoleic acid], in the experiment on α-glucosidase (fatty acids), the inhibition mechanism entry is recorded as “mixed-type”.

Take `CCCCCCCC/C=C\CCCCCCCC(=O)O` [oleic acid]: the inhibition mechanism result in the experiment with α-glucosidase (fatty acids) is “mixed-type”. With `CC/C=C\C/C=C\C/C=C\CCCCCCCC(=O)O` [α-linolenic acid], the inhibition mechanism result with α-glucosidase (fatty acids) is listed as “mixed-type”.

Take hydroxyglutaric acid [HGA]: the IC50 on α-glucosidase (from Paenibacillus sp. TKU042) is listed as 220 µg/mL.
